For three molecules, IC50 results are on record in patent US10065967B2, “Compounds that are ERK inhibitors” (Merck Sharp & Dohme Corp., priority 2013, dated 2018).

In general, IC50 refers to the midpoint of a concentration-inhibition curve.

Structures are written as SMILES.

Chain of Active Mouse ERK2 (mERK2) (P63085 whole entry): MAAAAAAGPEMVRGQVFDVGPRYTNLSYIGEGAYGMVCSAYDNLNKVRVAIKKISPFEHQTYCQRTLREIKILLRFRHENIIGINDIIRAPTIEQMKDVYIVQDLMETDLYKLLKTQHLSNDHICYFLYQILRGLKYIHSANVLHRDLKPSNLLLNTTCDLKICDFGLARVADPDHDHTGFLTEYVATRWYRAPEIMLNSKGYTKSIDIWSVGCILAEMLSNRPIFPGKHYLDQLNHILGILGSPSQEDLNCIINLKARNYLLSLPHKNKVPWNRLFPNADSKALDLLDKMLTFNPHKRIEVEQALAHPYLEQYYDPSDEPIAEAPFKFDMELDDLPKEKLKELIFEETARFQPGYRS

The experiment addresses Active Mouse ERK2 (mERK2) (Mus musculus (Mouse), UniProt P63085). The experiment can be described thus: Active Mouse ERK2 (mERK2) Activity Assay (IMAP-FP). To be noted: phosphorylated active mERK2 0.19 nM, 30 uM ATP, 10 point titration, read-out: ERK 2 MAPK1 Mouse IC50. The format is biochemical. As for the experimental part:
Active Mouse ERK2 (mERK2) Activity Assay:
Activated ERK2 activity was determined in an IMAP-FP assay (Molecular Devices). Using this assay format, the potency (IC50) of each compound was determined from a 10 point (1:3 serial dilution, 3 μM starting compound concentration) titration curve using the following outlined procedure. To each well of a black Corning 384-well plate (Corning Catalog #3575), 7.5 nL of compound (3333 fold dilution in final assay volume of 25 μL) was dispensed, followed by the addition of 15 μL of kinase buffer (tween containing kinase buffer, Molecular Devices) containing […] (0.316 nM) of phosphorylated active mERK2 enzyme. Following a 15 minute compound & enzyme incubation, each reaction was initiated by the addition of 10 μL kinase buffer containing 2.45 μM ERK2 IMAP substrate peptides (2.25 μM-unlabeled peptide and 200 nM-labeled peptide, and 75 μM ATP. The final reaction in each well of 25 μL consists of 0.19 nM mERK2, 900 nM unlabeled peptide, 80 nM labeled-peptide, and 30 uM ATP. Phosphorylation reactions were allowed to proceed for 45 minutes and were immediately quenched by the addition of 60 μL IMAP detection beads (1:1000 dilutions) in IMAP binding buffer (Molecular Devices) with 24 mM NaCl. Plates were read on EnVision reader after 60 minutes binding equilibration using Fluorescence Polarization protocol (Perkin Elmer).
Regarding `Cc1cc(-c2n[nH]c3cc4[nH]c(=O)ccc4cc23)ccn1` [Example 1, 3-(2-methylpyridin-4-yl)-1,8-dihydro-7H-pyrazolo[4,3-g]quinolin-7-one], the IC50 was 400 pM.
Consider `Cc1cc(-c2n[nH]c3cc4[nH]c(=O)c(Br)cc4cc23)ccn1` [Example 2, 6-bromo-3-(2-methylpyridin-4-yl)-1,8-dihydro-7H-pyrazolo[4,3-g]quinolin-7-one], for which the IC50 was 200 pM.
To `Cc1cc(-c2n[nH]c3cc4[nH]c(=O)c(Cc5ccccc5)cc4cc23)ccn1` [Example 3, 6-benzyl-3-(2-methylpyridin-4-yl)-1,8-dihydro-7H-pyrazolo[4,3-g]quinolin-7-one] belongs 200 pM.
